Experimental data published in patent US12265087B2, “Olfactory receptor as microglia marker and use thereof” (DAEGU GYEONGBUK INSTITUTE OF SCIENCE AND TECHNOLOGY, priority 2019, dated 2025).
Each block holds one molecule with its values, some of them ahead of it.

Key:
Olfr110 = target: T1, Olfr110 (Mus musculus, UniProt A2RT31); assay: Luciferase assay in Hana3A cells transfected with Olfr110; assay type: cell-based; details: for binding to Olfr110: furan derivatives; for reactivity with Olfr110 (relative luciferase activity): Hana3A cells
T1 construct: Full-length odorant receptor genes from mouse and human genomic DNAs were amplified using appropriate primers; Lucy (N); Flag (N); Rho (N); expressed in transfected cells; host or cells: Hana3A cells, co-transfected with RTP1S, pCRELuc and pRL-SV40
T1 sequence (A2RT31 1-317): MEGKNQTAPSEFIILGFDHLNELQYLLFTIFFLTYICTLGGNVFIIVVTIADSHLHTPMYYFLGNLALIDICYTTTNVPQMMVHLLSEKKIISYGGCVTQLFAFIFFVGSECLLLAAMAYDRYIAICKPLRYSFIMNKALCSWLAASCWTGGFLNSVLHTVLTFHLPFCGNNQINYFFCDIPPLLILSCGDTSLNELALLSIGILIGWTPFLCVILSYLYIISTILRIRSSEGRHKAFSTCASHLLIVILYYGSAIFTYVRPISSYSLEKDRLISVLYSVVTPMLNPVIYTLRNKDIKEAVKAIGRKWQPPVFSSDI
Experimental: (§1) A Dual-Glo luciferase assay system (#E2940; Promega) was used for OR ligand screening. More specifically, Hana3A cells were seeded in white polystyrene 96-well plates (#353296; BD Biosciences) one day before transfection. pCRELuc (1 μg; #219076; Agilent Technologies), pRL-SV40 (1 μg; #E2231; Promega), RTP1S (1 μg), and OR (6 μg; or Mock) vectors were transfected for 24 hours in each plate. Analysis was performed using Lipofectamine 2000 (#11668-019; Thermo Fisher Scientific) according to the manufacturer's protocols. Transfected cells were stimulated at 37° C. for 4 hours with various concentrations of diluted odorants in a CD293 medium (#11913-019; Thermo Fisher Scientific). The activity of luciferase was normalized to that of Renilla luciferase. Luminescence was measured using a SpectraMax L microplate reader (Molecular Devices).

Olfr111 = assay: Luciferase assay in Hana3A cells transfected with Olfr111; assay type: cell-based, mouse; details: for binding to Olfr1111: furan derivatives; for reactivity with Olfr111 (relative luciferase activity): Hana3A cells
Experimental: as §1

primary microglia [1] = assay: ROS / superoxide generation in primary microglia; assay type: cell-based, mouse; details: for ROS generated with 2-PF co-treatment: Sup MOI 5 + 500 μM 2-PF, 2-EF 0, 100, 300, 500 μM; for ROS generation after 2-PF: inhibitor pretreatment, then 2-PF
Experimental: Superoxide concentrations were calculated by measuring the degree ofcytochrome c reduction using a VersaMax microplate reader (Babior et al., 1973). Microglia were cultured in a 96 well plate at a concentration of 1.0×10^5 cells/well, and the microglia were activated by a 10 μM ATP solution containing 2-PF and cytochrome c, or a solution in which Sup is mixed with cytochalasin B (5 μM; #C66762; Sigma Aldrich). The concentration of ROS was measured through a change in light absorption every minute for 25 minutes at 550 nm.
ROS levels were measured using 2′,7′-dichlorodihydrofluorescein diacetate (DCF-DA, #D6883; Sigma Aldrich) by a previously described method with minor modifications (Bae et al., 2001). More specifically, primary microglia were seeded in 24-well plates (5.0×10^5 cells/well) for 24 hours, and then treated with 10 μM DCF-DA at 37° C. for 30 minutes. One plate was treated with 2-PF, and the other one was not. The cells in each well were measured using a flow cytometer (FACS Accuri™ C6; BD Biosciences). MFI was measured as described above.

primary microglia [2] = assay: Cytokine ELISA of primary microglia; assay type: cell-based, mouse; details: inhibitor pretreatment, then 2-PF
Experimental: The levels of expression of cytokines Tnf, i16 and I11b secreted from microglia were measured according to the manufacturer's protocols. More specifically, the levels were measured by ELISA 24 hours after treatment with 2-PF or a cell supernatant. The ELISA kit was purchased from BD Biosciences (#DY410 for Tnf; #DY406 for I16; #DY401 for I11b).

primary microglia [3] = assay: Western blotting of phosphorylated signaling proteins in primary microglia; assay type: cell-based, mouse; details: inhibitor pre-cultivation, then 2-PF
Experimental: Cells and tissue were prepared using the T-PER® reagent (#78510; Thermo Fisher Scientific) containing protease inhibitors (#04-693-116-001; Roche Molecular Diagnostics) and DMSF (Sigma-Aldrich), and then lysed using a MagNA lyser (Roche Molecular Diagnostics). A total protein extract was quantified by the Bradford assay. The samples were dissolved in 7.5% SDS-PAGE or 4-20% gradient mini-PROTEIN TGX Precast Gels (#456-1064; Bio-Rad Laboratories), and then blotted on nitrocellulose membranes (#10600002; GE Healthcare). Afterward, the membranes were blocked for 1 hour in 5% non-fat dry milk and TBST, 0.1% TWEEN® 20 (#P9416; Sigma-Aldrich), and Tris-buffered saline, and then incubated with primary antibodies at 4° C. overnight. The antibodies were as follows: Olfr110 (36 kDa; 1:1,000; #ab177327; Abcam), anti-rhodopsin (39 kDa; 1:1,000; #MABN15; Millipore), CREB (43 kDa; 1:1,000; #9197; Cell Signaling Technology), phospho-CREB (43 kDa; 1:1,000; #9198; Cell Signaling Technology), ERK (44 kDa; 1:1,000; #sc094; Santa Cruz), phospho-ERK (42, 44 kDa; 1:1,000; #sc-7383; Santa Cruz), phospho-Akt (60 kDa; 1:500; sc-293125; Santa Cruz), phospho-JNK (46, 54 kDa; 1:500; sc-6254; Santa Cruz), phosphor-p38 (38 kDa; 1:1,000; sc-7973; Santa Cruz), and beta-Actin (45 kDa; 1:10,000; #4967; Cell Signaling Technology). In addition, as isotype-matched horseradish peroxidase-conjugated secondary antibodies, anti-rabbit IgG (#711-035-152; Jackson ImmunoResearch) diluted 1:100,000, and anti-mouse IgG (#715-035-150; Jackson ImmunoResearch) diluted 1:40,000 in TBST were used at room temperature for 2 hours. Immunoreactive protein bands were obtained using SuperSignal™ West Pico Chemiluminescent Substrate (#34080; Thermo Fisher Scientific).

[4] = test system: Olfr920, Olfr1417 and Olfr99; details: also react with MOCK

Compound: Cc1ccoc1C [2,3-dimethylfuran]
- binding to Olfr110 (Olfr110): do not bind
- binding to Olfr1111 (Olfr111): do not bind

Compound: CCc1ccco1 [2-EF, 2-ethylfuran]
- mode of action at Olfr110 (Olfr110): competitive inhibitor (antagonist)
- 2-PF activity on Olfr110 with co-treatment (Olfr110; 2-PF fixed at 300 μM, 2-EF 1 μM to 10 mM): 2-PF activity decreases
- Kd (Olfr110; 2-PF fixed at 300 μM, 2-EF 1 μM to 10 mM, read-out: Kd (competitive activity against 2-PF)): 120 µM
- binding to Olfr110 (Olfr110): do not bind
- binding to Olfr1111 (Olfr111): do not bind
- amount of ROS generated by 100 MOI Sup (primary microglia [1]; 2-EF pretreated at 0, 100, 300, 500 μM): diminished as the 2-EF level increases
- ROS generated with 2-PF co-treatment (primary microglia [1]): the higher the concentration of 2-EF added, the lower the concentration of the generated ROS
- ROS generated with 2-PF co-treatment (primary microglia [1]; listed as 2-ethylfuran): reduced

Compound: CCCCc1ccco1 [2-butylfuran]
- reactivity with Olfr110 (relative luciferase activity) (Olfr110): showed reactivity
- reactivity with Olfr111 (relative luciferase activity) (Olfr111): showed reactivity

Compound: O=S(=O)(NCCNC/C=C/c1ccc(Br)cc1)c1cccc2cnccc12 [H-89]
- Tnf and Il6 cytokine levels after 2-PF (primary microglia [2]): great decrease

Compound: Nc1ncnc2c1ncn2C1CCCO1 (stereo not drawn) [SQ22536]
- Tnf and Il6 cytokine levels after 2-PF (primary microglia [2]): great decrease
- CREB and ERK phosphorylation (primary microglia [3]): greatly decreased

Compound: COc1ccc2c(c1)CC[C@@H]1[C@@H]2CC[C@]2(C)[C@@H](NCCCCCCN3C(=O)C=CC3=O)CC[C@@H]12 [U73122, reference compound]
- ROS generation after 2-PF (primary microglia [1]): completely inhibited
- Tnf and Il6 cytokine levels after 2-PF (primary microglia [2]): relatively less decrease

Compound: O=C1OC2(c3ccccc31)c1ccc(O)c(O)c1Oc1c2ccc(O)c1O [gallein, reference compound]
- ROS generation after 2-PF (primary microglia [1]): similarly inhibited

Compound: COc1cccc(-c2cc(=O)c3ccccc3o2)c1N [pd98059]
- Tnf and Il6 cytokine levels after 2-PF (primary microglia [2]): relatively less decrease
- CREB and ERK phosphorylation (primary microglia [3]): greatly decreased

The next lines start with results.

- binding to Olfr110 (Olfr110): do not bind
Compound: CCCCCCCc1ccco1 [2-heptylfuran]
- binding to Olfr1111 (Olfr111): do not bind

- reactivity with Olfr110 (relative luciferase activity) (Olfr110): showed reactivity
- binding to Olfr110 (Olfr110): do not bind
Compound: CCCCCCc1ccco1 [2-hexylfuran]
- reactivity with Olfr111 (relative luciferase activity) (Olfr111): showed reactivity
- binding to Olfr1111 (Olfr111): do not bind

- binding to Olfr110 (Olfr110): do not bind
Compound: Cc1ccco1 [2-methylfuran]
- binding to Olfr1111 (Olfr111): do not bind

- reactivity with Olfr110 (relative luciferase activity) (Olfr110): showed reactivity
Compound: CCCc1ccco1 [2-propylfuran]
- reactivity with Olfr111 (relative luciferase activity) (Olfr111): showed reactivity

- reactivity with Olfr110 (relative luciferase activity) (Olfr110): showed reactivity
Compound: CC(C)(C)c1ccco1 [2-t-butylfuran]
- reactivity with Olfr111 (relative luciferase activity) (Olfr111): showed reactivity

- reactivity of the other three receptors [4]: non-specific reaction
Compound: CCO [ethanol]
